The test concerns the target HPK1 (Homo sapiens (Human), UniProt Q92918). Put plainly: HPK1 kinase activity inhibition test (ADP-Glo, luminescence). The note with it: HPK1 5 nM, ATP 2 μM, read-out: IC50, inhibitory effects of compounds on HPK1 kinase activity. In kind it is biochemical. The procedure:
1. HPK1 Kinase Activity Inhibition Test
The kinase activity of HPK1 is manifested as activity of autophosphorylation and phosphorylation of downstream substrates. In the process of autophosphorylation, additional substrates are not required, and ATP is consumed to generate ADP. The amount of the product was measured by ADP-Glo reagent and luminescence method to reflect kinase activity.
Test compounds: compounds prepared in the examples of this application.
Prepare compound stock solution: dissolve the compound to be tested in 100% DMSO to make a 10 mM stock solution;
Prepare 4× Kinase Reaction Buffer:
Prepare 2×HPK1 Kinase Solution:
Dilute the stock solution of the compound to be tested by 5 times with […], make a 4-fold equal dilution in a 96-well dilution plate, add 1 μL of the compound to 49 µL of kinase reaction buffer, and shake on a microplate shaker for 20 minutes. Transfer 2 μL of […] kinase solution to 384 reaction plate, add 1 μL of the test compound to the 384 reaction plate (Greiner, 784075), centrifuge for 1 minute (1000 rpm/min), incubate at 25° C. for 10 minutes. Transfer […] of the 4×ATP mixture to a 384 reaction plate, centrifuge for 1 minute (1000 rpm/mm), and incubate at 25° C. for 60 minutes. In the reaction system, the final concentration of DMSO was […]. Transfer 4 μL of ADP-Glo to a 384 reaction plate, centrifuge for 1 minute (1000 rpm/min), and incubate at 25° C. for 40 minutes. Transfer 8 μL detection solution to a 384 reaction plate, centrifuge for 1 minute (1000 rpm/min), and incubate at 25° C. for 40 minutes. The […] signal was read using a Biotek multi-function plate reader, and the […] (half inhibitory concentration) of the compound was obtained using a four-coefficient nonlinear fitting formula.

For orientation: IC50 means the concentration at which inhibition is half-maximal.

Chain of HPK1 (Q92918 whole entry): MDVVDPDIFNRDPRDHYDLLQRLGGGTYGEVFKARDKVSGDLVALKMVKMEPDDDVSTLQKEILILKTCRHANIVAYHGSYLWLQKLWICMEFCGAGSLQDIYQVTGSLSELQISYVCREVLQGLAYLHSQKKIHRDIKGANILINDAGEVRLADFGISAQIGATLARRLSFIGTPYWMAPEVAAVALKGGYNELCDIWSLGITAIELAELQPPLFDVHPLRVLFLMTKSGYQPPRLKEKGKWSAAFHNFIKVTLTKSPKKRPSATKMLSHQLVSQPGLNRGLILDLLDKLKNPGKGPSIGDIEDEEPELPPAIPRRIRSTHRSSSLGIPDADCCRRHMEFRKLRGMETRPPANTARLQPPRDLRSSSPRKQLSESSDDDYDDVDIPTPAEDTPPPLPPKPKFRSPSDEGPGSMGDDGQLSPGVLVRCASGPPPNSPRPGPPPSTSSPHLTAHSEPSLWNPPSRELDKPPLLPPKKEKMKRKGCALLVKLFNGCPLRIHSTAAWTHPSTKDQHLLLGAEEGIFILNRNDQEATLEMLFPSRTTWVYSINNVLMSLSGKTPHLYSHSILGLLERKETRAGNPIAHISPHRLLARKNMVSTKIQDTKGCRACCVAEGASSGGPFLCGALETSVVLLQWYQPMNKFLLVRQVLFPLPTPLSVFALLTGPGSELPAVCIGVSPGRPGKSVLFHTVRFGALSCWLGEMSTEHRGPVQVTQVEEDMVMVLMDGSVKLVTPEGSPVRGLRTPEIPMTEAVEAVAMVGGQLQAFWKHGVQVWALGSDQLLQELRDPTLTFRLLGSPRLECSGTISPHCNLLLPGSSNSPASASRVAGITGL

On to `Cc1cccc(F)c1-n1nc2c(-c3ccc4c(c3)CN(C3CCN(C)CC3)CC4)n[nH]c2cc1=O` [Compound 168, 5-(2-fluoro-6-methylphenyl)-3-(2-(1-methylpiperidin-4-yl)-1,2,3,4-tetrahydroisoquinolin-7-yl)-1H-pyrazolo[4,3-c]pyridazin-6(5H)-one], for which the IC50 lay within 50 to 500 nM. `COc1cc(F)cc(F)c1-n1nc2c(-c3ccc4c(c3)CN(C)CC4)n[nH]c2cc1=O` [Compound 158, 5-(2,4-difluoro-6-methoxyphenyl)-3-(2-methyl-1,2,3,4-tetrahydroisoquinolin-7-yl)-1H-pyrazolo[4,3-c]pyridazin-6(5H)-one]: the IC50 was in the range of 50 to 500 nM. With `Cc1cccc(F)c1-n1nc2c(-c3ccc(N4CCS(=O)(=O)CC4)nc3)n[nH]c2cc1=O` [Compound 104, 3-(6-(1,1-dioxidothiomorpholino)pyrid-3-yl)-5-(2-fluoro-6-methylphenyl)-1H-pyrazolo[4,3-c]pyridazin-6(5H)-one], the 50% inhibitory concentration (IC50) was in the range of 50 to 500 nM.

With `COc1cccc(F)c1-n1nc2c(-c3ccc(N4CCN5C(=O)OCC5C4)cc3)n[nH]c2cc1=O` (stereo not shown) [Compound 123, 7-(4-(5-(2-fluoro-6-methoxyphenyl)-6-oxo-5,6-dihydro-1H-pyrazolo[4,3-c]pyridazin-3-yl)phenyl)tetrahydro-1H-oxazolo[3,4-a]pyrazin-3(5H)-one], the half-inhibitory concentration (IC50) is at most 50 nM.

For `Cc1cccc(F)c1-n1nc2c(-c3ccc4c(c3)CN(C)C(=O)C4)n[nH]c2cc1=O` [Compound 182, 7-(5-(2-fluoro-6-methylphenyl)-6-oxo-5,6-dihydro-1H-pyrazolo[4,3-c]pyridazin-3-yl)-2-methyl-1,2-dihydroisoquinolin-3(4H)-one], the IC50 was 50 to 500 nM. On to `Cc1cccc(F)c1-n1nc2c(-c3cc4c(cc3F)CCN(C)C4)n[nH]c2cc1=O` [Compound 189, 3-(6-fluoro-2-methyl-1,2,3,4-tetrahydroisoquinolin-7-yl)-5-(2-fluoro-6-methylphenyl)-1H-pyrazolo[4,3-c]pyridazin-6(5H)-one], for which the IC50 lay within 50 to 500 nM. Take `COc1cccc(F)c1-n1nc2c(-c3ccc(N4CCN(C)CC4)nc3)n[nH]c2cc1=O` [Compound 10]: the IC50 was at most 50 nM. The same measure for `Cc1cccc(F)c1-n1nc2c(-c3ccc(N4CCN(C)CC4=O)cc3)n[nH]c2cc1=O` [Compound 12, 5-(2-fluoro-6-methylphenyl)-3-(4-(4-methyl-2-oxopiperazin-1-yl)phenyl)-1H-pyrazolo[4,3-c]pyridazin-6(5H)-one]: 500 to 2000 nM; for `Cc1cccc(F)c1-n1nc2c(-c3ccc4c(c3)CCN(C3CN(C)C3)C4)n[nH]c2cc1=O` [Compound 194, 5-(2-fluoro-6-methylphenyl)-3-(2-(1-methylazetidin-3-yl)-1,2,3,4-tetrahydroisoquinolin-6-yl)-1H-pyrazolo[4,3-c]pyridazin-6(5H)-one]: at most 50 nM; for `Cc1cccc(F)c1-n1nc2c(-c3ccc4c(c3F)CN(C)CC4)n[nH]c2cc1=O` [Compound 188, 3-(8-fluoro-2-methyl-1,2,3,4-tetrahydroisoquinolin-7-yl)-5-(2-fluoro-6-methylphenyl)-1H-pyrazolo[4,3-c]pyridazin-6(5H)-one]: 50 to 500 nM.

As for `Cc1cccc(F)c1-n1nc2c(-c3cc(N4CCN(C)CC4)ccc3F)n[nH]c2cc1=O` [Compound 208, 3-(2-fluoro-5-(4-methylpiperazin-1-yl)phenyl)-5-(2-fluoro-6-methylphenyl)-1H-pyrazolo[4,3-c]pyridazin-6(5H)-one], the IC50 was at most 50 nM. With `Cc1cccc(F)c1-n1nc2c(-c3ccc(N4CCN(C)CC4)cc3)n[nH]c2c(C)c1=O` [Compound 55, 5-(2-fluoro-6-methylphenyl)-7-methyl-3-(4-(4-methylpiperazin-1-yl)phenyl)-1H-pyrazolo[4,3-c]pyridazin-6(5H)-one], the IC50 was 50 to 500 nM. On to `Cc1cc(C#N)cc(F)c1-n1nc2c(-c3ccc4c(c3)CN(C(=O)C(C)O)CC4)n[nH]c2cc1=O` (stereo not shown) [Compound 173, 3-fluoro-4-(3-(2-(2-hydroxylpropionyl)-1,2,3,4-tetrahydroisoquinolin-7-yl)-6-oxo-1H-pyrazolo[4,3-c]pyridazin-5(6H)-yl)-5-methylbenzonitrile], for which the IC50 lay in the range of 50 to 500 nM. The value for `Cc1cccc(F)c1-n1nc2c(-c3ccc4c(c3)C3COC(=O)N3CC4)n[nH]c2cc1=O` (stereo not shown) [Compound 185, 9-(5-(2-fluoro-6-methylphenyl)-6-oxo-5,6-dihydro-1H-pyrazolo[4,3-c]pyridazin-3-yl)-5,6-dihydro-1H-oxazolo[4,3-a]isoquinolin-3(10bH)-one] was 500 to 2000 nM. Take `Cc1cccc(F)c1-n1nc2c(-c3cnn(C4CCN(C)CC4)c3)n[nH]c2cc1=O` [Compound 19, 5-(2-fluoro-6-methylphenyl)-3-(1-(1-methylpiperidin-4-yl)-1H-pyrazol-4-yl)-1H-pyrazolo[4,3-c]pyridazin-6(5H)-one]: the IC50 was in the range of 500 to 2000 nM. As to `COc1cccc(F)c1-n1nc2c(-c3ccc(N4CCOCC4)cc3)n[nH]c2cc1=O` [Compound 92, 5-(2-fluoro-6-methoxyphenyl)-3-(4-morpholinophenyl)-1H-pyrazolo[4,3-c]pyridazin-6(5H)-one], the IC50 is at most 50 nM. As for `CNCc1cc(-c2n[nH]c3cc(=O)n(-c4c(C)cccc4F)nc23)ccc1N1CCN(C)CC1` [Compound 96, 3-(3-((methylamino)methyl)-4-(4-methylpiperazin-1-yl)phenyl)-5-(2-fluoro-6-methylphenyl)-1H-pyrazolo[4,3-c]pyridazin-6(5H)-one], the IC50 was 50 to 500 nM. Turning to `Cc1cccc(F)c1-n1nc2c(-c3ccc4c(c3)CN(C(=O)CN3CCOCC3)CC4)n[nH]c2cc1=O` [Compound 169, 5-(2-fluoro-6-methylphenyl)-3-(2-(2-morpholinoacetyl)-1,2,3,4-tetrahydroisoquinolin-7-yl)-1H-pyrazolo[4,3-c]pyridazin-6(5H)-one], the IC50 fell in the range of 50 to 500 nM. With `COc1cccc(F)c1-n1nc2c(-c3cc4c(cc3F)CCN(C)C4)n[nH]c2cc1=O` [Compound 191, 3-(6-fluoro-2-methyl-1,2,3,4-tetrahydroisoquinolin-7-yl)-5-(2-fluoro-6-methoxyphenyl)-1H-pyrazolo[4,3-c]pyridazin-6(5H)-one], the IC50 fell in the range of 50 to 500 nM. As to `Cc1cccc(F)c1-n1nc2c(-c3ccc(N4CCN(C)C(C(=O)O)C4)cc3)n[nH]c2cc1=O` (stereo not shown) [Compound 131, 4-(4-(5-(2-fluoro-6-methylphenyl)-6-oxo-5,6-dihydro-1H-pyrazolo[4,3-c]pyridazin-3-yl)phenyl)-1-methylpiperazin-2-carboxylic acid], the IC50 was in the range of 50 to 500 nM. In the case of `CN1CCN(c2ccc(-c3n[nH]c4cc(=O)n(-c5cccc6c5COC6)nc34)cc2)CC1` [Compound 75, 5-(1,3-dihydroisobenzofuran-4-yl)-3-(4-(4-methylpiperazin-1-yl)phenyl)-1H-pyrazolo[4,3-c]pyridazin-6(5H)-one], the IC50 was 500 to 2000 nM. For `Cc1cccc(F)c1-n1nc2c(-c3ccc(CN4CCN(C)CC4=O)cc3)n[nH]c2cc1=O` [Compound 15, 5-(2-fluoro-6-methylphenyl)-3-(4-((4-methyl-2-oxo-piperazin-1-yl)methyl)phenyl)-1H-pyrazolo[4,3-c]pyridazin-6(5H)-one], the IC50 fell in the range of 500 to 2000 nM.

Source of the values: US20230322789A1, “PYRAZOLOPYRIDAZINONE COMPOUND, AND PHARMACEUTICAL COMPOSITION AND USE THEREOF” (BroadenBio Co., Ltd., priority 2020, published 2023).
